In patent US20250282742A1, “BENZOFURAN DERIVATIVES FOR TARGETING AUTOPHAGY” (Automera PTE. LTD, priority 2024, published 2025):

Key:
Recombinant p62 protein = biological target: T1, Recombinant p62 protein (Homo sapiens, UniProt Q13501); experiment: Surface plasmon resonance (SPR) compound binding to immobilised p62; details: recombinant p62, 15° C
T1 construct: Recombinant p62 protein was buffer exchanged into Biacore SPR running buffer
Protocol: Example 28: Surface Plasmon Resonance (SPR) Analysis
Recombinant p62 protein was buffer exchanged into Biacore SPR running buffer (Cytiva 100671) using the Slide-A-Lyzer Mini Dialysis system 7K MWCO (Thermo Fisher Scientific, Cat no. 69560). The final protein concentration was determined using the Nanodrop One spectrophotometer (Thermo Fisher Scientific, cat no. ND-ONE-W), with calibration for the dialysis buffer.
The prepared protein was diluted in sodium acetate buffer (NaAc, pH 5.5, Cytiva) to concentrations ranging from approximately 0.25-40 μg/mL. Post-immobilization, the protein required approximately 16 hours of equilibration in running buffer supplemented with 1% DMSO at 15° C. to ensure adequate surface equilibration and protein reorganization.
All SPR experiments were conducted at a constant temperature of 15° C. The SPR chip surface was activated using EDC/NHS for a contact time of 6-10 min at a flow rate of 10 μL/min. This was followed by protein immobilization for 2100 seconds and ethanolamine capping for 420 seconds, both at the same flow rate. Immediately after immobilization, the NH2—REEE peptide was analyzed in Single Cycle Kinetics mode (SCK) to verify surface activity, ensuring it binds the sample with the published affinity (−20 μM by SPR).
For general compound binding studies, experiments were performed at 15° C. using a running buffer composed of 10 mM HEPES, 150 mM NaCl, 1 mM DTT, 0.05% Tween 20, and 1% DMSO at pH 7.4. The test compound was initially prepared at a 20 mM concentration in DMSO and subsequently titrated in 2-fold dilutions. For each assay, 2 μL of the compound was mixed with 198 μL of the running buffer, and the mixture was thoroughly pipetted approximately 15 times for homogenization.
A series of blank injections (0 μM concentration) were included for double referencing, with at least 8 or 16 per plate depending on the format. Typical injection parameters were 120 seconds for association and 180 seconds for dissociation at a flow rate of […]. A four-point solvent correction was prepared with DMSO concentrations ranging from 2% to 0.5% in the buffer. Post each compound injection, the system's needles were washed with 50% DMSO.
Analysis of the SPR data was conducted using the Cytiva Evaluation software. The binding levels at the late time-point of each interaction were corrected for reference, then normalized to percentage bound values to account for variations in immobilization levels, protein molecular weight, and compound molecular weight.
Compound binding studies were carried out according to experimental procedures above and SPR % occupancy was determined and summarized in Table 7.

[1] = test system: p62 oligomers in HeLa cells; experiment: p62 oligomerization assay (Western blot, 24 h treatment); type: cell-based; details: fold change of p62 oligomer levels relative to DMSO control
Protocol: (§1) HeLa cells were seeded in 6-well plates (700,000 cells) and allowed to adhere overnight. Media was replaced one hour before administering either vehicle (DMSO) or test compounds. After 24 hours of treatment, the media was discarded, and cells were rinsed once with ice-cold 1×PBS before detached from plates with ice-cold RIPA Lysis and Extraction Buffer (Thermo Fisher Scientific) which was supplemented with protease and phosphatase inhibitors. The resulting cell suspensions were transferred to pre-chilled microcentrifuge tubes, incubated on ice for 20 min with intermittent mixing and then centrifuged at 12,000 rpm for 20 min at 4° C. The supernatants were then aspirated slowly and transferred into new tubes kept on ice. The protein concentration in the samples was determined using BCA kit (Thermo Fisher Scientific) as per manufacturer's instructions.
(§2) For the p62 oligomerization and LC3 lipidation assays, cell lysates were prepared using RIPA buffer supplemented with 2% SDS and benzonase (Sigma). The lysates were then combined with 4× Laemmli protein sample buffer (Bio-Rad), heated at 70° C. for 10 min and subjected to a brief centrifugation of 10-15 seconds.
(§3) For p62 oligomerization and LC3 lipidation assays, lysates containing 30 μg of protein and for BRD4 and FKBP12(F36V) degradation assays, lysates containing 20 μg of protein, were loaded slowly into the wells of 4-20% gradient Tris-glycine gels (Bio-Rad). The gels were run at 100V until completion and transferred onto PVDF membranes. Membranes were blocked using 5% milk in TBS-Tween (0.1%) buffer at room temperature for 1 hour. The membranes were incubated with primary antibody in 5% milk-TBST with shaking, overnight at 4° C. The primary antibodies used were: p62 (Novus Biologicals 2C11, H00008878-MO1), LC3A/B (Cell Signalling Technology D3U4C, 12741S), FKBP12 (Abcam ab24373), BRD4 (Cell Signalling Technology E2A7X, 13440S), GAPDH (Cell Signalling Technology D4C6R, 97166S), and β-Actin (Proteintech 66009-1-Ig). Following primary antibody incubation, membranes were washed thrice with TBST 10 min before and after incubation with secondary-HRP conjugated antibody in 5% milk-TBST for 1 hour at room temperature. The secondary antibodies used were: Anti-Mouse IgG HRP Conjugate (Promega W4021B) and Anti-Rabbit IgG HRP Conjugate (Promega W4011B). For the p62 oligomerization assay, the total protein levels were assessed using Ponceau staining (Thermo Fisher Scientific) of PVDF membrane as per recommendation by manufacturer's guidelines.
(§4) Imaging was acquired using SuperSignal™ West Pico PLUS Chemiluminescent Substrate (Thermo Fisher Scientific) with iBright Invitrogen FL100 imaging system. Band signal intensity, reflective of protein concentrations, were quantified using Invitrogen™ iBright™ Analysis and Image J software.
HeLa cells were treated with compounds for 24 hours to evaluate the effect of these compounds on p62 oligomerisation activity. The resulting changes in levels of p62 oligomers were assessed by Western blotting, as described in experimental procedures. The fold change of p62 oligomer levels induced by compound treatment relative to vehicle control (DMSO) was determined and summarized in Table 8. Specifically, FIGS. 2A-C show Western blot images and their corresponding quantification showing the levels of high molecular weight (100-200 kDa) p62 oligomers by 24 hours compound treatments at listed concentrations, relative to vehicle control (DMSO) in HeLa cells. Protein loading consistencies was assessed by Ponceau staining (not shown).

[2] = test system: LC3 protein (LC3-II/LC3-I) in HeLa cells; experiment: LC3 lipidation assay (LC3-II/LC3-I, Western blot, 24 h treatment); type: cell-based; details: fold change in LC3-II/LC3-I relative to DMSO control
Protocol: as §1, §2, §3, §4
HeLa cells were treated with compounds for 24 hours to evaluate the effect of these compounds on LC3-II/LC3-I levels, a measure of autophagy activation. The changes in levels of LC3-I, LC3-II and β-Actin (loading control) were assessed by Western blotting, as described in experimental procedures. The fold increase of LC3-II/LC3-I levels induced by compound treatment relative to vehicle control (DMSO) was determined and summarized in Table 9. Specifically, FIGS. 3A-C show Western blot images and their corresponding quantification showing the lipidation levels of LC3 protein (LC3-II/LC3-I) by 24 hours compound treatments at listed concentrations, relative to vehicle control (DMSO) in HeLa cells.

BRD4 in HeLa cells = biological target: T2, BRD4 in HeLa cells (Homo sapiens, UniProt O60885); experiment: BRD4 degradation assay (Western blot, 24 h treatment); type: cell-based; details: doses up to 10 μM
T2 construct: endogenous in cells; host or cells: HeLa
Protocol: as §1
For the BRD4 degradation assay, cell lysates were prepared with RIPA buffer containing 0.25% SDS. These were mixed with 4× Laemmli protein sample buffer (Bio-Rad) supplemented with beta-mercaptoethaol (355 mM). The lysates were then heated at 95° C. for 5 min, and briefly centrifuged for 10-15 seconds.
For p62 oligomerization and LC3 lipidation assays, lysates containing 30 μg of protein and for BRD4 and FKBP12(F36V) degradation assays, lysates containing 20 μg of protein, were loaded slowly into the wells of 4-20% gradient Tris-glycine gels (Bio-Rad). The gels were run at 100V until completion and transferred onto PVDF membranes. Membranes were blocked using 5% milk in TBS-Tween (0.1%) buffer at room temperature for 1 hour. The membranes were incubated with primary antibody in 5% milk-TBST with shaking, overnight at 4° C. […] For the p62 oligomerization assay, the total protein levels were assessed using Ponceau staining (Thermo Fisher Scientific) of PVDF membrane as per recommendation by manufacturer's guidelines.
as §4
To evaluate levels of protein degradation by compounds 100-103, HeLa cells were treated with the corresponding compounds at doses up to 10 μM for 24 hours. The changes in levels of BRD4 and GAPDH (loading control) were assessed by Western blotting, as described in experimental procedures. Results are summarized in Table 11 below, measured by percentage change in BRD4 levels by compound treatment relative to vehicle (DMSO) control.

T1 sequence (Q13501 whole entry, species assumed): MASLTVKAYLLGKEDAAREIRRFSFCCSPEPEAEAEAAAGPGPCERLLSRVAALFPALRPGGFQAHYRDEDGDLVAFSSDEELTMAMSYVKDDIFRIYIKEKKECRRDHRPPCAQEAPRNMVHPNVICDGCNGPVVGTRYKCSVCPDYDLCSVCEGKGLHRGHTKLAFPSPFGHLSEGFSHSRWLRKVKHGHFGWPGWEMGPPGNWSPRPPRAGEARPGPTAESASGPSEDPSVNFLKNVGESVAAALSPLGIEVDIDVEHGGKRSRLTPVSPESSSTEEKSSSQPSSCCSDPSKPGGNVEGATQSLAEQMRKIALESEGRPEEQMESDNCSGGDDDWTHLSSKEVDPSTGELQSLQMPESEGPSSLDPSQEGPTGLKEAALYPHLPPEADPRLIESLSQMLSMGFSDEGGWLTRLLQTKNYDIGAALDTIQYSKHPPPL

receptor occupancy at 100 µM (Recombinant p62 protein) [%] | Compound | p62 oligomerization [1] | LC3 lipidation [2] | Degradation (change in BRD4 levels relative to DMSO control) (BRD4 in HeLa cells)
30 to 70 | CC(O)CNCc1ccc2cc(Cc3ccccc3)oc2c1 (stereo not shown) [compound 5] | + (< 2-fold change relative to DMSO control) | + (< 2-fold change in LC3-II/LC3-I relative to DMSO control) | 
30 to 70 | O=C(Nc1ccccc1)c1cc2ccc(CNCCO)cc2o1 [compound 35] | + (< 2-fold change relative to DMSO control) | + (< 2-fold change in LC3-II/LC3-I relative to DMSO control) | 
30 to 70 | CNCCOCc1ccc2cc(Cc3ccccc3)oc2c1 [compound 8] | ++ (> 2-fold change relative to DMSO control) | + (< 2-fold change in LC3-II/LC3-I relative to DMSO control) | 
 | Cc1sc2c(c1C)C(c1ccc(Cl)cc1)=N[C@@H](CC(=O)NCCOCCOCCOCCNCc1ccc3cc(Cc4ccccc4)oc3c1)c1nnc(C)n1-2 [compound 100, (S)-N-(1-(2-benzylbenzofuran-6-yl)-5,8,11-trioxa-2-azatridecan-13-yl)-2-(4-(4-chlorophenyl)-2,3,9-trimethyl-6H-thieno[3,2-f][1,2,4]triazolo[4,3-a][1,4]diazepin-6-yl)acetamide] |  |  | ++ (> 2-fold change in BRD4 levels relative to DMSO control)
> 70 | OCCNCc1ccc2cc(Cc3cccc(Cl)c3)oc2c1 [compound 15] | ++ (> 2-fold change relative to DMSO control) | + (< 2-fold change in LC3-II/LC3-I relative to DMSO control) | 
30 to 70 | OCCNCc1ccc2cc(CNC3CCCC(O)C3)oc2c1 (stereo not shown) [Compound 33, 3-(((6-(((2-hydroxyethyl)amino)methyl)benzofuran-2-yl)methyl)amino)cyclohexan-1-ol] | + (< 2-fold change relative to DMSO control) | + (< 2-fold change in LC3-II/LC3-I relative to DMSO control) | 
30 to 70 | CC(C)NCCOCc1ccc2cc(Cc3ccccc3)oc2c1 [Compound 7, N-(2-((2-benzylbenzofuran-6-yl)methoxy)ethyl)propan-2-amine] | ++ (> 2-fold change relative to DMSO control) | ++ (> 2-fold change in LC3-II/LC3-I relative to DMSO control) | 
> 70 | CC(C)NCC(O)COc1ccc2cc(Cc3ccccc3)oc2c1 (stereo not shown) [Compound 9, 1-((2-benzylbenzofuran-6-yl)oxy)-3-(isopropylamino)propan-2-ol] | + (< 2-fold change relative to DMSO control) | ++ (> 2-fold change in LC3-II/LC3-I relative to DMSO control) | 
30 to 70 | OCCNCc1ccc2c(Cc3ccccc3)coc2c1 [Compound 43, 2-(((3-benzylbenzofuran-6-yl)methyl)amino)ethan-1-ol] | + (< 2-fold change relative to DMSO control) | ++ (> 2-fold change in LC3-II/LC3-I relative to DMSO control) | 
 | Cc1sc2c(c1C)C(c1ccc(Cl)cc1)=N[C@@H](CC(=O)NCCOCCOCCOCCNCc1ccc3cc(CCc4ccccc4)oc3c1)c1nnc(C)n1-2 [compound 101] |  |  | ++ (> 2-fold change in BRD4 levels relative to DMSO control)
30 to 70 | OC1CC(NCc2ccc3cc(Cc4ccccc4)oc3c2)C1 (stereo not shown) [compound 10] | ++ (> 2-fold change relative to DMSO control) | + (< 2-fold change in LC3-II/LC3-I relative to DMSO control) | 
30 to 70 | OCCNCc1ccc2cc(CCc3ccccc3)oc2c1 [compound 3] | ++ (> 2-fold change relative to DMSO control) | ++ (> 2-fold change in LC3-II/LC3-I relative to DMSO control) | 
 | Cc1sc2c(c1C)C(c1ccc(Cl)cc1)=N[C@@H](CC(=O)NCCOCCOCCNCc1ccc3cc(Cc4ccccc4)oc3c1)c1nnc(C)n1-2 [compound 103] |  |  | ++ (> 2-fold change in BRD4 levels relative to DMSO control)
30 to 70 | OCCNCc1cc(F)c2cc(Cc3ccccc3)oc2c1 [compound 37] | ++ (> 2-fold change relative to DMSO control) | ++ (> 2-fold change in LC3-II/LC3-I relative to DMSO control) | 
 | Cc1sc2c(c1C)C(c1ccc(Cl)cc1)=N[C@@H](CC(=O)NCCOCCNCc1ccc3cc(Cc4ccccc4)oc3c1)c1nnc(C)n1-2 [compound 102] |  |  | + (< 2-fold change in BRD4 levels relative to DMSO control)
30 to 70 | COc1ccc(Cc2cc3ccc(CNCCO)cc3o2)cc1 [compound 17] | + (< 2-fold change relative to DMSO control) | + (< 2-fold change in LC3-II/LC3-I relative to DMSO control) | 
